Some results are limits rather than exact numbers.

One assay has as its target T1, hP2X2/3H (Homo sapiens, UniProt P56373+Q9UBL9).
T1 construct: expressed in transfected cells; host or cells: e.g. HEK293 or 1321N1
T1 sequence (Q9UBL9 1-471): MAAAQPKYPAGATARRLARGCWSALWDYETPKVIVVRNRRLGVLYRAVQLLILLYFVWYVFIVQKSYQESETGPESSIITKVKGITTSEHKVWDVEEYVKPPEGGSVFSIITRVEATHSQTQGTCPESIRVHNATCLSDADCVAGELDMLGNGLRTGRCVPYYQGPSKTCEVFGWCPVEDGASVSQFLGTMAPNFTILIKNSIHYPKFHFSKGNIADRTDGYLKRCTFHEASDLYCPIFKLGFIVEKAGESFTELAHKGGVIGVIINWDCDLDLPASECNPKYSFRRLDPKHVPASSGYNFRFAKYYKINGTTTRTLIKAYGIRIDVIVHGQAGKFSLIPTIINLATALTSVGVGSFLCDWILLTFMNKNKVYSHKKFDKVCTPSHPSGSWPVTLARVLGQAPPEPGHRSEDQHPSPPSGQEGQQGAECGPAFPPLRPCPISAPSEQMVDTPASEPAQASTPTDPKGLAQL
T1 sequence (P56373 1-397): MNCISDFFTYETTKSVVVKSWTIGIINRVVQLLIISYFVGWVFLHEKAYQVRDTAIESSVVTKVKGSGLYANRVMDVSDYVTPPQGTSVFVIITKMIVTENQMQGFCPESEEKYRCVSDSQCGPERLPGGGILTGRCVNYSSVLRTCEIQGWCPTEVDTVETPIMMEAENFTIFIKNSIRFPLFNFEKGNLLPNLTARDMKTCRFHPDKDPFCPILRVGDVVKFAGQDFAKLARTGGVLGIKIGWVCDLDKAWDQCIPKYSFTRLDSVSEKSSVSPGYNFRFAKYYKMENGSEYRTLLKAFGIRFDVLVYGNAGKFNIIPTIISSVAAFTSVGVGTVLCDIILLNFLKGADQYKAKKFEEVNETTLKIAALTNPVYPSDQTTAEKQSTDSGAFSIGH
Kind of assay: Calcium uptake assay (P2X antagonist assay), P2X2/3 heteromer. The format is cell-based. As to conditions: calcium uptake assay, hP2X2/3H; read-out: IC50 hP2X2/3H (nM), Ca Influx. In a few lines: (§1)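 Stably or transiently transfected HEK293 or 1321N1 cells; the heteromer is made by adding P2X3 to a P2X2-stable line, with heteromer function isolated pharmacologically. The peak-minus-baseline FLIPR calcium signal gives % inhibition and a 4-parameter-logistic IC50.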

A further assay addresses T2, hP2X3 (Homo sapiens, UniProt P56373).
T2 construct: expressed in transfected cells; host or cells: e.g. HEK293 or 1321N1
T2 sequence (P56373 1-397): T1 sequence (P56373 1-397)
Kind of assay: Calcium uptake assay (P2X antagonist assay), P2X3 homomer. The format is cell-based. As to conditions: calcium uptake assay, hP2X3; read-out: IC50 hP2X3 (nM), Ca Influx. In a few lines:
as §1

On to `Cc1ccc(-c2cc(C(=O)NCc3ccc(C(F)(F)F)c(F)c3)cc(C(=O)N3CCCC3)c2)nc1` [Compound 145], for which the IC50 at hP2X2/3H and at hP2X3 was 100 to 500 nM each time.

In the case of `Cc1ccc(-c2cc(C(=O)NCc3ccc(C(F)(F)F)nc3)cc(C(=O)N3CC[C@@H](O)C3)c2)nc1` [Compound 146], the IC50 on hP2X2/3H and at hP2X3 was less than 100 nM in each case.

`Cc1ccc(-c2cc(C(=O)N[C@H](C)c3cnc(C)nc3)cc(S(=O)(=O)N3CCCC3)c2)c(C#N)c1` [Compound 147]: the IC50 at hP2X2/3H is more than 1000 nM; on hP2X3, less than 100 nM.

In the case of `Cc1ccc(-c2cc(C(=O)NCc3ccc(C)nc3)cc(S(=O)(=O)N3CCCC3)c2)c(C#N)c1` [Compound 148], the IC50 at hP2X2/3H is more than 1000 nM; on hP2X3, less than 100 nM.

For the molecule `Cc1ccc(-c2cc(C(=O)N[C@H](C)c3cnc(C)c(Cl)c3)cc(S(C)(=O)=O)c2)cc1` [Compound 149], the IC50 at hP2X2/3H and on hP2X3 was 100 to 500 nM in each case.

Turning to `Cc1ccc(-c2cc(C(=O)N[C@H](C)c3ccc(C(F)(F)F)nc3)cc(C(=O)N3CC[C@@H](O)C3)c2)nc1` [Compound 150], the IC50 on hP2X2/3H and at hP2X3 was less than 100 nM throughout.

Turning to `Cc1ccc(-c2cc(C(=O)NCc3ccc(C(F)(F)F)c(F)c3)cc(C(=O)N3CC[C@@H](O)C3)c2)nc1` [Compound 151], the IC50 at hP2X2/3H was 100 to 500 nM; at hP2X3, less than 100 nM.

`COc1ccc(CNC(=O)c2cc(C(=O)N3CCCC3)cc(-c3ccc(C)cc3)c2)cn1` [Compound 152]: the IC50 on hP2X2/3H and at hP2X3 was less than 100 nM each time.

As for `Cc1ccc(-c2cc(C#N)cc(C(=O)NCc3ccc(C)nc3)c2)cc1` [Compound 153], the IC50 on hP2X2/3H and on hP2X3 was 100 to 500 nM each time.

For `Cc1ccc(-c2cc(C#N)cc(C(=O)NCc3cnc(C)nc3)c2)cc1` [Compound 154], the IC50 on hP2X2/3H and on hP2X3 was 100 to 500 nM each time.

In the case of `Cc1ccc(-c2cc(C#N)cc(C(=O)NCc3cnc(C)nc3)c2)nc1` [Compound 155], the IC50 at hP2X2/3H and on hP2X3 was more than 1000 nM each time.

`Cc1ccc(-c2cc(C(=O)NCc3ccc(C(F)(F)F)nc3)cc(C(=O)N3CC[C@@H](O)C3)c2)cc1` [Compound 156]: the IC50 on hP2X2/3H is 100 to 500 nM; at hP2X3 it was less than 100 nM.

Regarding `Cc1ccc(-c2cc(C(=O)N[C@H](C)c3cnc(C)nc3)cc(C(=O)N3CC[C@@H](O)C3)c2)cc1` [Compound 157], the IC50 on hP2X2/3H and on hP2X3 was less than 100 nM each time.

In the case of `Cc1ccc(-c2cc(C(=O)N[C@H](C)c3ccc(C(F)(F)F)nc3)cc(C(=O)N3CC[C@@H](O)C3)c2)cc1` [Compound 158], the IC50 at hP2X2/3H and at hP2X3 was less than 100 nM each time.

Consider `Cc1ccc(-c2cc(C(=O)NCc3cccc(-n4cnnc4)c3)cc(C(=O)N3CCCC3)c2)cc1` [Compound 159], for which the IC50 on hP2X2/3H and at hP2X3 was 100 to 500 nM throughout.

Turning to `Cc1ccc(-c2cc(C#N)cc(C(=O)NCc3ccc(C)nc3)c2)nc1` [Compound 160], the results for the IC50 at hP2X2/3H and on hP2X3 were 501 to 1000 nM and 100 to 500 nM, respectively.

In the case of `Cc1ccc(-c2cc(C(N)=O)cc(C(=O)NCc3ccc(C)nc3)c2)cc1` [Compound 161], the IC50 at hP2X2/3H was 100 to 500 nM; on hP2X3, less than 100 nM.

As to `Cc1ccc(-c2cc(C(=O)NCc3ccc(C)nc3)cc(C(=O)N(C)Cc3ccncc3)c2)cc1` [Compound 162, N3,4′-Dimethyl-N-5-((6-methylpyridin-3-yl)methyl)-N3-(pyridin-4-ylmethyl)biphenyl-3,5-dicarboxamide], the IC50 on hP2X2/3H and at hP2X3 was less than 100 nM throughout.

For `Cc1ccc(-c2cc(C(=O)NCc3ccc(C)nc3)cc(C(=O)N(C)c3ccncc3)c2)cc1` [Compound 163, N3,4′-Dimethyl-N5-((6-methylpyridin-3-yl)methyl)-N3-(pyridin-4-yl)biphenyl-3,5-dicarboxamide], the IC50 is 100 to 500 nM on hP2X2/3H and less than 100 nM at hP2X3.

Regarding `Cc1ccc(-c2cc(C(=O)NCc3ccc(C)nc3)cc(C(=O)N(C)c3ccccn3)c2)cc1` [Compound 164], the IC50 was 100 to 500 nM on hP2X2/3H and less than 100 nM on hP2X3.

As to `Cc1ccc(-c2cc(C(=O)NCc3ccc(C)nc3)cc(C(=O)N(C)[C@@H]3CCNC3)c2)cc1` [Compound 165, (R)—N3,4′-Dimethyl-N5-((6-methylpyridin-3-yl)methyl)-N3-(pyrrolidin-3-yl)biphenyl-3,5-dicarboxamide], the IC50 at hP2X2/3H was 501 to 1000 nM; at hP2X3 it was 100 to 500 nM.

As to `Cc1ccc(-c2cc(C(=O)NCc3ccc(C)nc3)cc(C(=O)N(C)C)c2)cc1` [Compound 166, N3,N3,4′-Trimethyl-N5-((6-methylpyridin-3-yl)methyl)biphenyl-3,5-dicarboxamide], the IC50 is 100 to 500 nM at hP2X2/3H and less than 100 nM at hP2X3.

In the case of `Cc1ccc(-c2cc(C(=O)NCc3ccc(C)nc3)cc(C(=O)N(C)C3CCNCC3)c2)cc1` [Compound 167], the IC50 at hP2X2/3H is more than 1000 nM; at hP2X3, 100 to 500 nM.

For the molecule `Cc1ccc(-c2cc(C(=O)NCc3ccc(C)nc3)cc(C(=O)N(C)CC(F)(F)F)c2)cc1` [Compound 168, N3,4′-Dimethyl-N5-((6-methylpyridin-3-yl)methyl)-N3-(2,2,2-trifluoroethyl)biphenyl-3,5-dicarboxamide], the IC50 on hP2X2/3H and on hP2X3 was less than 100 nM in each case.

Turning to `Cc1ccc(-c2cc(C(=O)NCc3ccc(C)nc3)cc(C(=O)N(C)CC3CCNCC3)c2)cc1` [Compound 169], the IC50 on hP2X2/3H and on hP2X3 was 100 to 500 nM each time.

On to `CCN(CC)C(=O)c1cc(C(=O)NCc2cnc(C)nc2)cc(-c2ccc(C)cc2)c1` [Compound 170], for which the figures for the IC50 on hP2X2/3H and on hP2X3 were 100 to 500 nM and less than 100 nM, respectively.

On to `Cc1ccc(-c2cc(C(=O)N[C@H](C)c3ccc(C)nc3)cc(S(C)(=O)=O)c2)cc1` [Compound 171], for which the IC50 at hP2X2/3H and on hP2X3 was less than 100 nM throughout.

Turning to `Cc1ccc(-c2cc(C(=O)NCc3ccc(C)nc3)cc(C(=O)N(C)[C@H]3CCNC3)c2)cc1` [Compound 172], the IC50 is 100 to 500 nM at hP2X2/3H and less than 100 nM on hP2X3.

In the case of `Cc1ccc(-c2cc(C(=O)N[C@H](C)c3ccc(C)nc3)cc(C(=O)N3CCCC3)c2)nc1` [Compound 173], the IC50 on hP2X2/3H and at hP2X3 was less than 100 nM throughout.

As to `Cc1ccc(-c2cc(C(=O)N[C@H](C)c3cnc(C)nc3)cc(C(=O)N3CCCC3)c2)nc1` [Compound 174], the IC50 at hP2X2/3H and on hP2X3 was less than 100 nM throughout.

For `Cc1ccc(-c2cc(C(=O)NC(C)c3csc(C)n3)cc(C(=O)N3CCCC3)c2)nc1` (stereo not shown) [Compound 175], the IC50 on hP2X2/3H was 100 to 500 nM; at hP2X3, less than 100 nM.

With `Cc1ccc(-c2cc(C(=O)N[C@H](C)c3ccc(C)nc3)cc(C(=O)N3CCCC3)c2)cc1` [Compound 176], the IC50 on hP2X2/3H and at hP2X3 was less than 100 nM throughout.

In the case of `Cc1ccc(-c2cc(C(=O)N[C@@H](C)c3ccc(C)nc3)cc(C(=O)N3CCCC3)c2)cc1` [Compound 177], the IC50 on hP2X2/3H and at hP2X3 was more than 1000 nM throughout.

Consider `Cc1ccc(-c2cc(C(=O)N[C@H](C)c3ccc(C)nc3)cc(C(=O)N3CC[C@@H](O)C3)c2)nc1` [Compound 178], for which the IC50 on hP2X2/3H and at hP2X3 was less than 100 nM in each case.

As to `Cc1ccc(-c2cc(C(=O)NCc3ccc(C)nc3)cc(C(=O)N3CC[C@@H](O)C3)c2)nc1` [Compound 179], the IC50 on hP2X2/3H and on hP2X3 was less than 100 nM throughout.
